IC50 data for eight compounds are collected here from BindingDB's records for 0.1007/s00044-005-0126-y (University, Mississippi, 2005).

Experiment [1] concerns the target T1, Cysteine proteinase falcipain 3 (Plasmodium falciparum (isolate 3D7), UniProt Q8IIL0).
T1 sequence (Q8IIL0 whole entry): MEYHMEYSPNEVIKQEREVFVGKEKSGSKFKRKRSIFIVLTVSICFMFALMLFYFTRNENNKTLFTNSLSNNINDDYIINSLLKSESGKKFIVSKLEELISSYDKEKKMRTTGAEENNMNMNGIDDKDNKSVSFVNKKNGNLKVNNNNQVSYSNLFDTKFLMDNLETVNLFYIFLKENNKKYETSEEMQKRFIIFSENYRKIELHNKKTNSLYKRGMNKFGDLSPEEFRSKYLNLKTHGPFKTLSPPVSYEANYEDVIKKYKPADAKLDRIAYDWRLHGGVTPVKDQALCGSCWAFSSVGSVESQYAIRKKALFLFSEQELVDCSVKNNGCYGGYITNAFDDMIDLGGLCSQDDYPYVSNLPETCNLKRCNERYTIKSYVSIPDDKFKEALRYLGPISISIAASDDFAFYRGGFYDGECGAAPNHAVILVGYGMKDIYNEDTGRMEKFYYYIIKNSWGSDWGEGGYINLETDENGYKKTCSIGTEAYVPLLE
Put plainly: In Vitro Inhibition Assay. The procedure: (§1) In vitro antimalarial assay, antimalarial activity of the compounds was determined in vitro on chloroquine sensitive and resistant strains of plasmodium flaciparum as described earlier.

Experiment [2] has as its target T2, Cysteine proteinase falcipain 2a (Plasmodium falciparum, UniProt Q9NBD4).
T2 sequence (Q9NBD4 whole entry): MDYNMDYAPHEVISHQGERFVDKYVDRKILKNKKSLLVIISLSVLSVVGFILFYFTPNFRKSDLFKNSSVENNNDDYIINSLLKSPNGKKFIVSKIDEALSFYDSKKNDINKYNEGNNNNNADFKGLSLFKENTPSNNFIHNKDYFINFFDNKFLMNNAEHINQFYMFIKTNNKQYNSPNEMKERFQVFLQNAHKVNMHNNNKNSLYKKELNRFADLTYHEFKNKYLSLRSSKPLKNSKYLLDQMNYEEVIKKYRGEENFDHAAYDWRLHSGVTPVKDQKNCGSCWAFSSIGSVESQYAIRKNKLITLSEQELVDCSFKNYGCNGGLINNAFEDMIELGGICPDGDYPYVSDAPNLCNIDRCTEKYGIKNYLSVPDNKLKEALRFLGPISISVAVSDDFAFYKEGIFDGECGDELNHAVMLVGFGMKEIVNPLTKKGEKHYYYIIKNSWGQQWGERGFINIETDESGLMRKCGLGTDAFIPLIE
Briefly: In Vitro Inhibition Assay. As to the method:
as §1

Take `O=CCCc1sc(CCC(=O)CSCCCc2ccccc2)nc1CCc1ccccc1` [Trisubsituted thiazole, 16]: the IC50 was over 50 µM in experiment [1] and 39.1 µM in experiment [2].

Take `O=C(CCc1nc(CCc2ccccc2)c(CCCO)s1)CSCCCc1ccccc1` [Trisubsituted thiazole, 15]: the IC50 is over 50 µM in experiment [1] and over 12.5 µM in experiment [2]. In the same order, the values of `CC(=O)OCc1nc(CCC(=O)CSCCCc2ccccc2)sc1CCc1ccccc1` [Trisubsituted thiazole, 30] are over 50 µM and over 33 µM. Consider `NC(=O)CCc1sc(CCC(=O)CSCCCc2ccccc2)nc1CCc1ccccc1` [Trisubsituted thiazole, 17], for which the IC50 in experiment [1] was over 50 µM; in experiment [2] it was over 33 µM. For `O=C(C=Cc1nc(CCc2ccccc2)c(CCCO)s1)CSCCCc1ccccc1` [Trisubsituted thiazole, 14], in that order: 29.4 µM and 6.6 µM. In the same order, the values of `O=C(CCc1nc(CO)c(CCc2ccccc2)s1)CSCCCc1ccccc1` [Trisubsituted thiazole, 29] are over 50 µM and over 12.5 µM. In turn, `NC(=O)CCc1sc(NC(=O)CSCCCc2ccccc2)nc1/C=C/c1ccccc1` [Trisubsituted thiazole, 23] had an IC50 in experiment [2] of 15.3 µM. For `CC(=O)NCCCc1sc(CCC(=O)CSCCCc2ccccc2)nc1CCc1ccccc1` [Trisubsituted thiazole, 20], the IC50 is over 50 µM in experiment [1] and over 33 µM in experiment [2].
